Measured values as given in PubChem BioAssay (NCI).
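Cultured in 96-well plates, cells were exposed to test compound for 48 hours across five concentrations. TGI denotes the concentration required for complete inhibition of growth.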

Experiments:
Test in all cases: inhibition of tumour cell growth, NCI panel, 48 h
786-0 renal = tested on: 786-0 renal
A549 NSCLC = tested on: A549 NSCLC
CCRF-CEM leukemia = tested on: CCRF-CEM leukemia
HCC-2998 colon = tested on: HCC-2998 colon
HCT-116 colon = tested on: HCT-116 colon
HT29 colon = tested on: HT29 colon
K-562 leukemia = tested on: K-562 leukemia
SF-268 CNS = tested on: SF-268 CNS
SNB-19 CNS = tested on: SNB-19 CNS
SW-620 colon = tested on: SW-620 colon
CAKI-1 renal = tested on: CAKI-1 renal
OVCAR-3 ovarian = tested on: OVCAR-3 ovarian
TK-10 renal = tested on: TK-10 renal
HS 578T breast = tested on: HS 578T breast
MCF7 breast = tested on: MCF7 breast
PC-3 prostate = tested on: PC-3 prostate
BT-549 breast = tested on: BT-549 breast

| Compound | TGI (786-0 renal) [µM] | TGI (A549 NSCLC) [µM] | TGI (CCRF-CEM leukemia) [µM] | TGI (HCC-2998 colon) [µM] | TGI (HCT-116 colon) [µM] | TGI (HT29 colon) [µM] | TGI (K-562 leukemia) [µM] | TGI (SF-268 CNS) [µM] | TGI (SNB-19 CNS) [µM] | TGI (SW-620 colon) [µM] | TGI (CAKI-1 renal) [µM] | TGI (OVCAR-3 ovarian) [µM] | TGI (TK-10 renal) [µM] | TGI (HS 578T breast) [µM] | TGI (MCF7 breast) [µM] | TGI (PC-3 prostate) [µM] | TGI (BT-549 breast) [µM] |
| --- | --- | --- | --- | --- | --- | --- | --- | --- | --- | --- | --- | --- | --- | --- | --- | --- | --- |
| CC(=O)c1ccc(N2C(=O)C3c4[nH]c5ccccc5c4C4CCC(C(C)(C)C)CC4C3C2=O)cc1 (stereo not given) | 34.3 | 50.9 | > 100 | 35.8 | 30.7 | 32.6 | > 100 | 36.7 | > 100 | 54.3 |  |  |  |  |  |  |  |
| C/C(=C1/N=C(c2cc([N+](=O)[O-])ccc2Cl)N(c2ccc(Br)cc2)C1=O)c1ccc(N(CCC#N)CCC#N)cc1C | > 100 | 62.6 | 32.7 | 72.1 | 29.5 | > 100 | 29.3 | > 100 | > 100 | 25.5 | > 100 | 99.7 | > 100 |  |  |  |  |
| CC(C)OP(=O)(OC(C)C)C(=NCCO)NNc1ccc([N+](=O)[O-])cc1 | > 100 | > 100 | > 100 | > 100 | > 100 |  | > 100 | > 100 | > 100 | > 100 | > 100 | > 100 | > 100 |  |  |  |  |
| COC1(OC)CC2C(=O)N(Cc3ccccc3)C1C(S(=O)(=O)c1ccccc1)C2C(C)S(=O)(=O)c1ccccc1 (stereo not given) | > 100 | > 100 | > 100 | > 100 | > 100 | > 100 | > 100 | > 100 | > 100 | > 100 | > 100 | > 100 | > 100 |  |  |  |  |
| CC(=O)O[C@@H]1[C@H](OC2CCCCC2(c2ccccc2)c2ccccc2)O[N+]([O-])=CC12CCCCC2 (stereo not given in full) | 26.2 | 31.6 | 15.7 | 32.6 | 32 | 36.2 | > 100 | 34.6 |  | 31.6 | 27.5 | 28.1 | 30.4 | 43.3 | 33.9 | 22.6 |  |
| CC1CC(=O)Nc2ccc(Cl)cc2N1C(=O)CN1CCC(CCCCN(C)C)CC1 (stereo not given) | > 100 | > 100 | > 100 | > 100 | > 100 | > 100 | > 100 | > 100 | > 100 | > 100 | > 100 | > 100 | > 100 |  |  |  |  |
| Cc1ccc(S(=O)(=O)NC(=O)C2S(=O)(=O)OCCOS2(=O)=O)cc1 | > 100 | > 100 | > 100 | > 100 | > 100 | > 100 | > 100 | > 100 | > 100 | > 100 | > 100 | > 100 | > 100 |  |  |  |  |
| COc1ccccc1-n1cnc2c1NC(C)(C)N=C2C(N)=O | > 100 | > 100 | > 100 | > 100 | > 100 | > 100 | > 100 | > 100 | > 100 | > 100 | > 100 | > 100 | > 100 | > 100 | > 100 | > 100 |  |
| CC1=C(C(=O)NNC(=O)Cc2ccccc2)CC(C(=O)NNC(=O)Cc2ccccc2)=C(C)N1 | > 100 | > 100 |  | > 100 | > 100 | > 100 |  | > 100 | > 100 | > 100 | > 100 | > 100 | > 100 |  | > 100 |  | > 100 |
| CCOC(=O)/C(Br)=C1\OC(=O)c2ccccc2-c2ccccc21 | > 100 | > 100 | 67.7 | > 100 | > 100 | > 100 | > 100 | > 100 |  | > 100 | > 100 | > 100 | > 100 |  |  |  |  |
| NCCOc1ccc(/C(=C(/Cl)c2ccccc2)c2ccccc2)cc1 | 20.7 | 31.5 | 24.6 | 14.8 | 20.2 | 7.81 | 14.8 | 29.8 | 28.9 | 16.1 | 23.2 | 26.2 | 26.2 |  |  |  |  |
| CCOC(=O)Cc1c(C)c2ccc(OC(C)=O)c(OC(C)=O)c2oc1=O | > 100 | > 100 | 28.5 |  | > 100 | 91.3 | 71.9 | 96.1 | > 100 | > 100 |  | > 100 | 65.2 | > 100 | 77.1 | > 100 |  |
| CCOC(=O)NN(C(=O)OCC)c1ccc(N=Nc2ccc(OC)cc2)n1C | 97.9 | 63.5 |  | 83.6 | 34.4 | 58.3 | 71.4 |  |  |  |  | 53.2 | > 100 | > 100 | 31.8 | 53.4 |  |
| CCN(CC)CC1CCCCN1CC(=O)N1c2cc(Cl)ccc2NC(=O)CC1C (stereo not given) | > 100 | > 100 | > 100 | > 100 | > 100 |  | > 100 | > 100 | > 100 | > 100 | > 100 | > 100 | > 100 |  |  |  |  |
| CCOC(=O)COc1cc(-c2ccccc2F)nc2cc3c(cc12)OCO3 | > 100 | > 100 | 55.7 | > 100 | > 100 | > 100 | > 100 | > 100 |  | > 100 | > 100 |  | > 100 |  | > 100 | > 100 | > 100 |
| O=C1CC(c2ccc(Cl)cc2)C2(C(=O)NC(=S)NC2=O)C(c2ccc(Cl)cc2)C1 (stereo not given) | > 100 | 73 | 75.4 | 43.3 | 45.5 | 32.4 | 74.1 | 31.9 | 36.6 | 44.7 | 74.6 | 33.9 | > 100 | 99.4 | 32.1 | 55.1 |  |
